Reference: article PMC6271338, “Synthesis and Cytotoxic Evaluation of Alkoxylated Chalcones” (Molecules, 2014)

Tests used:
[1] = Cytotoxicity (SRB) against non-tumoral L02 cells; type: cell-based, human; conditions: human, L02 cells (non-tumoral human liver cell line); increasing concentrations up to 100 μM; mean ± SD of at least three independent experiments; read-out: Normal Human Cell Lines, CC50, L02
HeLa cells = assay: In vitro anti-proliferative SRB assay, HeLa; type: cell-based, human; conditions: for IC50: Homo sapiens, HeLa, increasing concentrations up to 30 μM, mean ± SD of at least three independent experiments; for SI (CC50 HMLE/IC50 Hela) / SI (CC50 L02/IC50 Hela): selectivity index; for SI (CC50 HMLE/IC50 Hela): HMLE vs HeLa; for SI (CC50 L02/IC50 Hela): L02 vs HeLa
A549 cells = assay: In vitro anti-proliferative SRB assay, A549; type: cell-based, human; conditions: for IC50: Homo sapiens, A549, increasing concentrations up to 30 μM, mean ± SD of at least three independent experiments; for SI (CC50 HMLE/IC50 A549) / SI (CC50 L02/IC50 A549): selectivity index; for SI (CC50 HMLE/IC50 A549): HMLE vs A549; for SI (CC50 L02/IC50 A549): L02 vs A549
HepG2 cells = assay: In vitro anti-proliferative SRB assay, HepG2; type: cell-based, human; conditions: for IC50: Homo sapiens, HepG2, increasing concentrations up to 30 μM, mean ± SD of at least three independent experiments; for SI (CC50 HMLE/IC50 HepG2) / SI (CC50 L02/IC50 HepG2): selectivity index; for SI (CC50 HMLE/IC50 HepG2): HMLE vs HepG2; for SI (CC50 L02/IC50 HepG2): L02 vs HepG2
MCF-7 cells = assay: In vitro anti-proliferative SRB assay, MCF-7; type: cell-based, human; conditions: for IC50: Homo sapiens, MCF7, increasing concentrations up to 30 μM, mean ± SD of at least three independent experiments; for SI (CC50 HMLE/IC50 MCF7) / SI (CC50 L02/IC50 MCF7): selectivity index; for SI (CC50 HMLE/IC50 MCF7): HMLE vs MCF7; for SI (CC50 L02/IC50 MCF7): L02 vs MCF7
[2] = test system: five human cancer cell lines (HepG2, HeLa, MCF-7, A549 and SW1990); assay: In vitro anti-proliferative SRB assay, summary statements over the five-line panel; type: cell-based
Description: With a aim of identifying potential anticancer agents with enhanced levels of activity, as well as verifying the conclusions provided above, we took a14 as a starting compound, and then designed and synthesized a series of chalcones b1–42 bearing methoxy groups at the 2' and 6'-positions of the B-ring, whilst varying the substituents on the A-ring. The cytotoxicities of the resulting chalcones were evaluated in vitro against five human cancer cell lines and other two non-tumoral cell lines, including HepG2, HeLa, MCF-7, A549, SW1990, HMLE and L02, and the results are shown in Table 2.
HepG2 and MCF7 cells were grown in the Eagle’s minimum essential medium with Earle’s balanced salts (MEM-EBSS) medium, HeLa, A549 and L02 cells were grown in Dulbecco’s Modified Eagle Media (DMEM), SW1990 cells were grown in RPMI-1640 medium, and HMLE cell were grown in DMEM/F-12 medium. The media were supplemented with 100 U/mL penicillin, […] streptomycin and 10% fetal bovine serum (FBS), and incubated at 37 °C in a humidified atmosphere containing 5% CO2.
Cells were seeded into 96-well plates (4000 cells/well) and incubated at 37 °C in a humidified 5% CO2 atmosphere. After 24 h, the cells were treated with different concentrations of the compounds for 48 h in triplicate to generate dose-response curves. Cell viability was evaluated using the sulforhodamine B (SRB) assay as previous described. […] Etoposide was used as the positive control.

[3] = Cytotoxicity (SRB) against non-tumoral HMLE cells; type: cell-based, human; conditions: human, HMLE cells (non-tumoral human mammary epithelial cells); increasing concentrations up to 100 μM; mean ± SD of at least three independent experiments; read-out: Normal Human Cell Lines, CC50, HMLE
SW1990 cells = assay: In vitro anti-proliferative SRB assay, SW1990; type: cell-based, human; conditions: for IC50: Homo sapiens, SW1990, increasing concentrations up to 30 μM, mean ± SD of at least three independent experiments; for SI (CC50 HMLE/IC50 SW1990) / SI (CC50 L02/IC50 SW1990): selectivity index; for SI (CC50 HMLE/IC50 SW1990): HMLE vs SW1990; for SI (CC50 L02/IC50 SW1990): L02 vs SW1990
[4] = test system: human mammary epithelial cell (HMLE); assay: Cytotoxicity (SRB) against non-tumoral HMLE cells; type: cell-based; conditions: HMLE versus the five tumoral cell lines
[5] = most of their in vitro IC50 values against the five human cancer lines
[6] = Homo sapiens, nearly all of the IC50 values

Structure (SMILES)	CC50 at 48 h [1] [µM]	IC50 (HeLa cells) [µM]	SI (CC50 HMLE/IC50 Hela) (HeLa cells)	SI (CC50 L02/IC50 Hela) (HeLa cells)	IC50 (A549 cells) [µM]	SI (CC50 HMLE/IC50 A549) (A549 cells)	SI (CC50 L02/IC50 A549) (A549 cells)	IC50 (HepG2 cells) [µM]	SI (CC50 HMLE/IC50 HepG2) (HepG2 cells)	SI (CC50 L02/IC50 HepG2) (HepG2 cells)	IC50 (MCF-7 cells) [µM]	SI (CC50 HMLE/IC50 MCF7) (MCF-7 cells)	SI (CC50 L02/IC50 MCF7) (MCF-7 cells)	IC50 [2, 5] [µM]	CC50 at 48 h [3] [µM]	melting point [°C]	IC50 (SW1990 cells) [µM]	SI (CC50 HMLE/IC50 SW1990) (SW1990 cells)	SI (CC50 L02/IC50 SW1990) (SW1990 cells)	IC50 [2, 6] [µM]	other results
COc1ccc(OC)c(C(=O)/C=C/c2c(OC)cccc2OC)c1 [b18, (E)-1-(2,5-Dimethoxyphenyl)-3-(2,6-dimethoxyphenyl)prop-2-en-1-one]	17 ± 2.73	4.56 ± 0.22	0.5	3.7	4.16 ± 0.72	0.6	4.1	1.59 ± 0.15	1.6	10.7	5.6 ± 0.06	0.4	3.0	< 10	2.48 ± 0.34	121 to 122	9.64 ± 0.18	0.3	1.8	–	–
COc1cccc(OC)c1/C=C/C(=O)c1ccc(O)cc1O [b27, (E)-1-(2,4-Dihydroxyphenyl)-3-(2,6-dimethoxyphenyl)prop-2-en-1-one]	35.5 ± 5.72	24.84 ± 0.17	>4.0	1.4	17.3 ± 0.76	>5.8	2.1	17.4 ± 1.01	>5.8	2.0	23.1 ± 0.82	>4.3	1.5	–	> 100	218.7 to 220.2	> 30	–	<1.2	–	SI between the CC50 in HMLE and IC50 in tumoral cells [4]: 2–7 fold
CCOc1ccc(C(=O)/C=C/c2c(OC)cccc2OC)cc1OC [b16, (E)-1-(4-Ethoxy-3-methoxyphenyl)-3-(2,6-dimethoxyphenyl)prop-2-en-1-one]	44.7 ± 8.15	5.02 ± 0.09	1.8	8.9	5.78 ± 0.11	1.6	7.7	4.14 ± 0.11	2.2	10.8	4.79 ± 0.13	1.9	9.3	< 10	9.15 ± 1.33	105.3 to 107.2	7.67 ± 0.04	1.2	5.8	–	–
COc1cccc(OC)c1/C=C/C(=O)c1cccc(C(F)(F)F)c1 [b41, (E)-1-(3-(Trifluoromethyl)phenyl)-3-(2,6-dimethoxyphenyl)prop-2-en-1-one]	> 100	29.1 ± 3.06	>3.4	>3.4	> 30	–	–	24.4 ± 5.87	>4.1	>4.1	> 30	–	–	–	> 100	145.3 to 146.7	> 30	–	–	> 30	–
COc1cccc(OC)c1/C=C/C(=O)c1cc(C(F)(F)F)cc(C(F)(F)F)c1 [b42, (E)-1-(3,5-bis(Trifluoromethyl)phenyl)-3-(2,6-dimethoxyphenyl)prop-2-en-1-one]	> 100	> 30	–	–	> 30	–	–	> 30	–	–	> 30	–	–	–	> 100	126.5 to 127.8	> 30	–	–	> 30	–
COc1cccc(OC)c1/C=C/C(=O)c1ccc([N+](=O)[O-])cc1 [b40, (E)-1-(4-Nitrophenyl)-3-(2,6-dimethoxyphenyl)prop-2-en-1-one]	> 100	> 30	–	–	> 30	–	–	> 30	–	–	> 30	–	–	–	> 100	147.3 to 148.6	> 30	–	–	> 30	–
COc1cccc(OC)c1/C=C/C(=O)c1cccc(N)c1 [b23, (E)-1-(3-Aminophenyl)-3-(2,6-dimethoxyphenyl)prop-2-en-1-one]	43.2 ± 11.7	7.23 ± 0.07	1.6	6.0	7.32 ± 0.29	1.6	5.9	5.7 ± 0.09	2.0	7.6	8.56 ± 0.75	1.3	5.0	< 10	11.4 ± 0.76	148.6 to 150.3	10.07 ± 0.03	1.1	4.3	–	–
COc1cccc(OC)c1/C=C/C(=O)c1ccc(C#N)cc1 [b30, (E)-1-(4-Cyanophenyl)-3-(2,6-dimethoxyphenyl)prop-2-en-1-one]	> 100	> 30	<0.4	–	> 30	<0.4	–	20.4 ± 0.21	0.6	>4.9	> 30	<0.4	–	–	12.6 ± 2.82	144.3 to 145.9	> 30	<0.4	–	> 30	–
COc1ccccc1C(=O)/C=C/c1c(OC)cccc1OC [b6, (E)-1-(2-Methoxyphenyl)-3-(2,6-dimethoxyphenyl)prop-2-en-1-one]	8.78 ± 1.21	5 ± 0.03	0.8	1.8	6.35 ± 0.32	0.6	1.4	2.05 ± 0.22	2.0	4.3	5.6 ± 0.17	0.7	1.6	< 10	4.01 ± 0.05	109 to 111.4	10 ± 0.14	0.4	0.9	–	–
COc1cccc(OC)c1/C=C/C(=O)c1ccc(-c2ccccc2)cc1 [b22, (E)-1-([1,1'-Biphenyl]-4-yl)-3-(2,6-dimethoxyphenyl)prop-2-en-1-one]	14.5 ± 6.58	0.87 ± 0.25	2.5	16.7	1.75 ± 0.15	1.3	8.3	0.25 ± 0.03	8.8	58.2	2.4 ± 0.08	0.9	6.1	< 10	2.21 ± 0.09	121.7 to 123.5	1.24 ± 0.08	1.8	11.7	–	fold as potent than etoposide (HepG2 cells; HepG2 cells, ratio of IC50 values versus etoposide): 20.4 fold; fold as potent than etoposide (SW1990 cells; SW1990 cells, ratio of IC50 values versus etoposide): 23.6 fold
COc1cccc(OC)c1/C=C/C(=O)c1cccc([N+](=O)[O-])c1 [b39, (E)-1-(3-Nitrophenyl)-3-(2,6-dimethoxyphenyl)prop-2-en-1-one]	> 100	> 30	–	–	> 30	–	–	> 30	–	–	> 30	–	–	–	> 100	172.3 to 173.7	> 30	–	–	> 30	–
